Source: patent publication US6706740B2, “Fungicidal heterocyclic aromatic amides and their compositions, methods of use and preparation” (Dow AgroSciences LLC, priority 1999, dated 2004)

System: Magnaporthe grisea (Pyricularia oryzae—PYRIOR)
Assay: microbe, parasite or virus in culture
Assay type: cell-based
Settings: Pyricularia oryzae, read-out: PYRIOR in vitro Growth Inhibition

Compound | inhibition at 25 ppm [%]
COc1ccnc(C(=O)Nc2ccc(Oc3cc(C(F)(F)F)cc(C(F)(F)F)n3)cc2)c1O [Compound 464] | < 80
O=C(NCc1cccc(Cl)c1)c1ncccc1O [Compound 219] | > 80
CC(NC(=O)c1ncccc1O)c1ccccc1 (stereo not drawn) [Compound 229] | > 80
COc1ccnc(C(=O)Nc2cccc(NC(=O)c3ccc(C(F)(F)F)cc3)c2)c1O [Compound 454] | < 80
O=C(NCc1ccccn1)c1nc(Br)ccc1O [Compound 483] | < 80
CC(C)C(=O)O[C@H]1[C@H](C)OC(=O)[C@@H](NC(=O)c2nc3ccccc3cc2O)COC(=O)[C@@H]1Cc1ccccc1 [Compound 562] | < 80
CC(NC(=O)c1nc(Br)ccc1O)c1ccc(Cl)cc1 (stereo not drawn) [Compound 487] | > 80

System: Rhizoctonia solani (RHIZSO)
Assay: microbe, parasite or virus in culture
Assay type: cell-based
Settings: Rhizoctonia solani, read-out: RHIZSO in vitro Growth Inhibition

Compound | inhibition at 25 ppm [%]
COc1ccnc(C(=O)Nc2ccc(Oc3cc(C(F)(F)F)cc(C(F)(F)F)n3)cc2)c1O [Compound 464] | < 80
O=C(NCc1cccc(Cl)c1)c1ncccc1O [Compound 219] | > 80
CC(NC(=O)c1ncccc1O)c1ccccc1 (stereo not drawn) [Compound 229] | < 80
COc1ccnc(C(=O)Nc2cccc(NC(=O)c3ccc(C(F)(F)F)cc3)c2)c1O [Compound 454] | < 80
O=C(NCc1ccccn1)c1nc(Br)ccc1O [Compound 483] | < 80
CC(C)C(=O)O[C@H]1[C@H](C)OC(=O)[C@@H](NC(=O)c2nc3ccccc3cc2O)COC(=O)[C@@H]1Cc1ccccc1 [Compound 562] | < 80
CC(NC(=O)c1nc(Br)ccc1O)c1ccc(Cl)cc1 (stereo not drawn) [Compound 487] | < 80

System: Mycosphaerella graminicola (Septoria tritici—SEPTTR)
Assay: In vitro fungal growth inhibition, Mycosphaerella graminicola (SEPTTR)
Assay type: cell-based
Settings: Zymoseptoria tritici; 25 ppm in growth medium; read-out: SEPTTR in vitro Growth Inhibition

Compound | inhibition at 25 ppm [%]
O=C(NCc1cccc(Cl)c1)c1ncccc1O [Compound 219] | > 80
CC(NC(=O)c1ncccc1O)c1ccccc1 (stereo not drawn) [Compound 229] | > 80
COc1ccnc(C(=O)Nc2cccc(NC(=O)c3ccc(C(F)(F)F)cc3)c2)c1O [Compound 454] | < 80

Same assay, conditions: Zymoseptoria tritici; 25 ppm in the growth medium; read-out: SEPTTR in vitro Growth Inhibition

Compound | inhibition at 25 ppm [%]
COc1ccnc(C(=O)Nc2ccc(Oc3cc(C(F)(F)F)cc(C(F)(F)F)n3)cc2)c1O [Compound 464] | < 80
O=C(NCc1ccccn1)c1nc(Br)ccc1O [Compound 483] | < 80
CC(C)C(=O)O[C@H]1[C@H](C)OC(=O)[C@@H](NC(=O)c2nc3ccccc3cc2O)COC(=O)[C@@H]1Cc1ccccc1 [Compound 562] | < 80
CC(NC(=O)c1nc(Br)ccc1O)c1ccc(Cl)cc1 (stereo not drawn) [Compound 487] | < 80

System: Stagonospora nodorum (Leptosphaeria nodorum—LEPTNO)
Assay: In vitro fungal growth inhibition, Stagonospora nodorum (LEPTNO)
Assay type: cell-based
Settings: Leptosphaeria; 25 ppm in growth medium; read-out: LEPTNO in vitro Growth Inhibition

Compound | inhibition at 25 ppm [%]
O=C(NCc1cccc(Cl)c1)c1ncccc1O [Compound 219] | > 80
CC(NC(=O)c1ncccc1O)c1ccccc1 (stereo not drawn) [Compound 229] | < 80
COc1ccnc(C(=O)Nc2cccc(NC(=O)c3ccc(C(F)(F)F)cc3)c2)c1O [Compound 454] | < 80

Same assay, conditions: Leptosphaeria; 25 ppm in the growth medium; read-out: LEPTNO in vitro Growth Inhibition

Compound | inhibition at 25 ppm [%]
COc1ccnc(C(=O)Nc2ccc(Oc3cc(C(F)(F)F)cc(C(F)(F)F)n3)cc2)c1O [Compound 464] | < 80
O=C(NCc1ccccn1)c1nc(Br)ccc1O [Compound 483] | > 80
CC(C)C(=O)O[C@H]1[C@H](C)OC(=O)[C@@H](NC(=O)c2nc3ccccc3cc2O)COC(=O)[C@@H]1Cc1ccccc1 [Compound 562] | < 80
CC(NC(=O)c1nc(Br)ccc1O)c1ccc(Cl)cc1 (stereo not drawn) [Compound 487] | < 80

System: Ustilago maydis (USTIMA)
Assay: microbe, parasite or virus in culture
Assay type: cell-based
Settings: Mycosarcoma maydis, read-out: USTIMA in vitro Growth Inhibition

Compound | inhibition at 25 ppm [%]
COc1ccnc(C(=O)Nc2ccc(Oc3cc(C(F)(F)F)cc(C(F)(F)F)n3)cc2)c1O [Compound 464] | < 80
O=C(NCc1cccc(Cl)c1)c1ncccc1O [Compound 219] | > 80
CC(NC(=O)c1ncccc1O)c1ccccc1 (stereo not drawn) [Compound 229] | < 80
COc1ccnc(C(=O)Nc2cccc(NC(=O)c3ccc(C(F)(F)F)cc3)c2)c1O [Compound 454] | < 80
O=C(NCc1ccccn1)c1nc(Br)ccc1O [Compound 483] | < 80
CC(C)C(=O)O[C@H]1[C@H](C)OC(=O)[C@@H](NC(=O)c2nc3ccccc3cc2O)COC(=O)[C@@H]1Cc1ccccc1 [Compound 562] | < 80
CC(NC(=O)c1nc(Br)ccc1O)c1ccc(Cl)cc1 (stereo not drawn) [Compound 487] | < 80

System: Phytophthora infestans (PHYTIN)
Assay: microbe, parasite or virus in culture
Assay type: cell-based
Settings: Phytophthora infestans, read-out: PHYTIN in vitro Growth Inhibition

Compound | inhibition at 25 ppm [%]
COc1ccnc(C(=O)Nc2ccc(Oc3cc(C(F)(F)F)cc(C(F)(F)F)n3)cc2)c1O [Compound 464] | < 80
O=C(NCc1cccc(Cl)c1)c1ncccc1O [Compound 219] | > 80
CC(NC(=O)c1ncccc1O)c1ccccc1 (stereo not drawn) [Compound 229] | < 80
COc1ccnc(C(=O)Nc2cccc(NC(=O)c3ccc(C(F)(F)F)cc3)c2)c1O [Compound 454] | < 80
O=C(NCc1ccccn1)c1nc(Br)ccc1O [Compound 483] | < 80
CC(C)C(=O)O[C@H]1[C@H](C)OC(=O)[C@@H](NC(=O)c2nc3ccccc3cc2O)COC(=O)[C@@H]1Cc1ccccc1 [Compound 562] | < 80
CC(NC(=O)c1nc(Br)ccc1O)c1ccc(Cl)cc1 (stereo not drawn) [Compound 487] | < 80

System: Phytophthora infestans—PHYTIN
Assay: whole plant or invertebrate
Assay type: in vivo
Settings: Phytophthora, in Solanum lycopersicum, 24 h, read-out: PHYTIN in vivo 1 Day Protectant

Compound | pest or weed control at 100 ppm [%]
COc1ccnc(C(=O)Nc2ccc(Oc3cc(C(F)(F)F)cc(C(F)(F)F)n3)cc2)c1O [Compound 464] | < 25
O=C(NCc1cccc(Cl)c1)c1ncccc1O [Compound 219] | < 25
CC(NC(=O)c1ncccc1O)c1ccccc1 (stereo not drawn) [Compound 229] | < 25
COc1ccnc(C(=O)Nc2cccc(NC(=O)c3ccc(C(F)(F)F)cc3)c2)c1O [Compound 454] | < 25
O=C(NCc1ccccn1)c1nc(Br)ccc1O [Compound 483] | < 25
CC(C)C(=O)O[C@H]1[C@H](C)OC(=O)[C@@H](NC(=O)c2nc3ccccc3cc2O)COC(=O)[C@@H]1Cc1ccccc1 [Compound 562] | < 25
CC(NC(=O)c1nc(Br)ccc1O)c1ccc(Cl)cc1 (stereo not drawn) [Compound 487] | < 25

System: Puccinia recondita—PUCCRT
Assay: Brown Rust of Wheat, in vivo whole plant, 24 Hour Protectant
Settings: Puccinia; 100 ppm spray, 24 hour protectant, wheat; control of fungal infection vs untreated plants; read-out: PUCCRT in vivo 1 Day Protectant

Compound | pest or weed control at 100 ppm [%]
O=C(NCc1cccc(Cl)c1)c1ncccc1O [Compound 219] | < 25
CC(NC(=O)c1ncccc1O)c1ccccc1 (stereo not drawn) [Compound 229] | < 25

Same assay, conditions: Puccinia; 100 ppm spray, wheat, 24 hour protectant; control of fungal infection vs untreated plants; read-out: PUCCRT in vivo 1 Day Protectant

Compound | pest or weed control at 100 ppm [%]
COc1ccnc(C(=O)Nc2cccc(NC(=O)c3ccc(C(F)(F)F)cc3)c2)c1O [Compound 454] | < 25

Same assay, conditions: Puccinia; wheat plants sprayed at 100 ppm, inoculated after 24 hours; control of fungal infection vs untreated plants; read-out: PUCCRT in vivo 1 Day Protectant

Compound | pest or weed control at 100 ppm [%]
COc1ccnc(C(=O)Nc2ccc(Oc3cc(C(F)(F)F)cc(C(F)(F)F)n3)cc2)c1O [Compound 464] | < 25
O=C(NCc1ccccn1)c1nc(Br)ccc1O [Compound 483] | < 25
CC(C)C(=O)O[C@H]1[C@H](C)OC(=O)[C@@H](NC(=O)c2nc3ccccc3cc2O)COC(=O)[C@@H]1Cc1ccccc1 [Compound 562] | < 25
CC(NC(=O)c1nc(Br)ccc1O)c1ccc(Cl)cc1 (stereo not drawn) [Compound 487] | 25 to 74

System: Erysiphe graminis—ERYSGT
Assay: Powdery Mildew of Wheat, in vivo whole plant, 24 Hour Protectant
Settings: Erysiphe; 100 ppm spray, 24 hour protectant, wheat; control of fungal infection vs untreated plants; read-out: ERYSGT in vivo 1 Day Protectant

Compound | pest or weed control at 100 ppm [%]
O=C(NCc1cccc(Cl)c1)c1ncccc1O [Compound 219] | < 25
CC(NC(=O)c1ncccc1O)c1ccccc1 (stereo not drawn) [Compound 229] | < 25

Same assay, conditions: Erysiphe; 100 ppm spray, wheat, 24 hour protectant; control of fungal infection vs untreated plants; read-out: ERYSGT in vivo 1 Day Protectant

Compound | pest or weed control at 100 ppm [%]
COc1ccnc(C(=O)Nc2cccc(NC(=O)c3ccc(C(F)(F)F)cc3)c2)c1O [Compound 454] | < 25

Same assay, conditions: Erysiphe; wheat plants sprayed at 100 ppm, inoculated after 24 hours; control of fungal infection vs untreated plants; read-out: ERYSGT in vivo 1 Day Protectant

Compound | pest or weed control at 100 ppm [%]
COc1ccnc(C(=O)Nc2ccc(Oc3cc(C(F)(F)F)cc(C(F)(F)F)n3)cc2)c1O [Compound 464] | < 25
O=C(NCc1ccccn1)c1nc(Br)ccc1O [Compound 483] | < 25
CC(C)C(=O)O[C@H]1[C@H](C)OC(=O)[C@@H](NC(=O)c2nc3ccccc3cc2O)COC(=O)[C@@H]1Cc1ccccc1 [Compound 562] | 25 to 74
CC(NC(=O)c1nc(Br)ccc1O)c1ccc(Cl)cc1 (stereo not drawn) [Compound 487] | < 25

System: Septoria tritici—SEPTTR
Assay: Leaf Blotch of Wheat, in vivo whole plant, 24 Hour Protectant
Settings: Zymoseptoria tritici, 24 h, 100 ppm spray, 24 hour protectant, wheat; control of fungal infection vs untreated plants; read-out: SEPTTR in vivo 1 Day Protectant

Compound | pest or weed control at 100 ppm [%]
O=C(NCc1cccc(Cl)c1)c1ncccc1O [Compound 219] | < 25
CC(NC(=O)c1ncccc1O)c1ccccc1 (stereo not drawn) [Compound 229] | < 25

Same assay, conditions: Zymoseptoria tritici, 24 h, 100 ppm spray, wheat, 24 hour protectant; control of fungal infection vs untreated plants; read-out: SEPTTR in vivo 1 Day Protectant

Compound | pest or weed control at 100 ppm [%]
COc1ccnc(C(=O)Nc2cccc(NC(=O)c3ccc(C(F)(F)F)cc3)c2)c1O [Compound 454] | 25 to 74

Same assay, conditions: Zymoseptoria tritici, 24 h, wheat plants sprayed at 100 ppm, inoculated after 24 hours; control of fungal infection vs untreated plants; read-out: SEPTTR in vivo 1 Day Protectant

Compound | pest or weed control at 100 ppm [%]
COc1ccnc(C(=O)Nc2ccc(Oc3cc(C(F)(F)F)cc(C(F)(F)F)n3)cc2)c1O [Compound 464] | 25 to 74
O=C(NCc1ccccn1)c1nc(Br)ccc1O [Compound 483] | < 25
CC(C)C(=O)O[C@H]1[C@H](C)OC(=O)[C@@H](NC(=O)c2nc3ccccc3cc2O)COC(=O)[C@@H]1Cc1ccccc1 [Compound 562] | 25 to 74
CC(NC(=O)c1nc(Br)ccc1O)c1ccc(Cl)cc1 (stereo not drawn) [Compound 487] | < 25

System: Leptosphaeria nodorum—LEPTNO
Assay: Glume Blotch of Wheat, in vivo whole plant, 24 Hour Protectant
Settings: Leptosphaeria; 100 ppm spray, 24 hour protectant, wheat; control of fungal infection vs untreated plants; read-out: LEPTNO in vivo 1 Day Protectant

Compound | pest or weed control at 100 ppm [%]
O=C(NCc1cccc(Cl)c1)c1ncccc1O [Compound 219] | < 25
CC(NC(=O)c1ncccc1O)c1ccccc1 (stereo not drawn) [Compound 229] | < 25

Same assay, conditions: Leptosphaeria; 100 ppm spray, wheat, 24 hour protectant; control of fungal infection vs untreated plants; read-out: LEPTNO in vivo 1 Day Protectant

Compound | pest or weed control at 100 ppm [%]
COc1ccnc(C(=O)Nc2cccc(NC(=O)c3ccc(C(F)(F)F)cc3)c2)c1O [Compound 454] | 25 to 74

Same assay, conditions: Leptosphaeria; wheat plants sprayed at 100 ppm, inoculated after 24 hours; control of fungal infection vs untreated plants; read-out: LEPTNO in vivo 1 Day Protectant

Compound | pest or weed control at 100 ppm [%]
COc1ccnc(C(=O)Nc2ccc(Oc3cc(C(F)(F)F)cc(C(F)(F)F)n3)cc2)c1O [Compound 464] | 25 to 74
O=C(NCc1ccccn1)c1nc(Br)ccc1O [Compound 483] | < 25
CC(C)C(=O)O[C@H]1[C@H](C)OC(=O)[C@@H](NC(=O)c2nc3ccccc3cc2O)COC(=O)[C@@H]1Cc1ccccc1 [Compound 562] | < 25
CC(NC(=O)c1nc(Br)ccc1O)c1ccc(Cl)cc1 (stereo not drawn) [Compound 487] | < 25

System: not given
Assay: not given
Settings: not given

Compound | melting point [°C]
COc1ccnc(C(=O)Nc2ccc(Oc3cc(C(F)(F)F)cc(C(F)(F)F)n3)cc2)c1O [Compound 464] | 179 to 181
O=C(NCc1cccc(Cl)c1)c1ncccc1O [Compound 219] | 65 to 67
CC(NC(=O)c1ncccc1O)c1ccccc1 (stereo not drawn) [Compound 229] | 89 to 91
COc1ccnc(C(=O)Nc2cccc(NC(=O)c3ccc(C(F)(F)F)cc3)c2)c1O [Compound 454] | 240 to 242
O=C(NCc1ccccn1)c1nc(Br)ccc1O [Compound 483] | 124 to 126
CC(C)C(=O)O[C@H]1[C@H](C)OC(=O)[C@@H](NC(=O)c2nc3ccccc3cc2O)COC(=O)[C@@H]1Cc1ccccc1 [Compound 562] | 163 to 165
CC(NC(=O)c1nc(Br)ccc1O)c1ccc(Cl)cc1 (stereo not drawn) [Compound 487] | 106 to 107
